Read-outs that look alike come from different tables or passages of the source.
Key:
in vitro [1] = conditions: human
in vitro [2] = conditions: mouse, microsomes, pH 7.4, MLM CLint, mouse liver microsomes
physchem = conditions: HPLC, Ascentis Express RP Amide column, pH 7.4, eLogD, experimental
[3] = tested on: Leishmania infantum MHOM/MA(BE)/67/ITMAP263 intracellular amastigotes; test: microbe, parasite or virus in culture; conditions: Macrophage, in Mus musculus
in vitro [4] = conditions: PAMPA
[5] = tested on: primary peritoneal mouse macrophages (PMM); test: cells; conditions: Macrophage, read-out: PMM IC50
in vitro [6] = conditions: human, microsomes, pH 7.4, HLM CLint, human liver microsomes
[7] = tested on: Trypanosoma cruzi, Tulahuen CL2, beta-galactosidase strain; test: microbe, parasite or virus in culture; conditions: MRC5, read-out: T. cruzi Tulahuen C4 (LacZ) IC50
[8] = tested on: Leishmania infantum MHOM/MA(BE)/67/ITMAP263 intracellular amastigotes; conditions: for IC50: read-out: L. infantum MHOM/MA(BE)/67/ITMAP263 intracellular amastigotes IC50
MRC-5SV2 cells = test: Cytotoxicity assay on MRC-5SV2 cells (resazurin)
[9] = tested on: L. donovani MHOM/ET/67/L82 intracellular amastigotes; conditions: read-out: L. donovani MHOM/ET/67/L82 intracellular amastigotes IC50
[10] = tested on: primary peritoneal mouse macrophages (PMM); conditions: for IC50: read-out: PMM IC50; for SI (vs PMM): PMM IC50 / L. infantum IC50
[11] = read-out: L. Inf. pIC50, from L. infantum intracellular amastigote IC50 (converted)
[12] = read-out: L. infantum MHOM/MA(BE)/67/ITMAP263 intracellular amastigotes IC50, intracellular amastigotes
[13] = from L. infantum intracellular amastigote IC50

SMILES | CC50 at 3 days (in vitro [1]) [µM] | microsomal CLint at 0.5 μM (in vitro [2]) [µL/min/mg] | chromatographic logD (physchem) | IC50 [3, 11] [µM] | IC50 [3, 12] [µM] | Papp (in vitro [4]) [×10⁻⁶ cm/s] | IC50 [5] [µM] | microsomal CLint at 0.5 μM (in vitro [6]) [µL/min/mg] | IC50 [7] [µM] | IC50 [8] [µM] | CC50 (MRC-5SV2 cells) [µM] | IC50 [9] [µM] | IC50 [10] [µM] | L. Inf. pIC50 [8] | L. Inf. pIC50 [8, 13] | SI (vs PMM) [10]
CCOCCOc1ncccc1S(=O)(=O)NCc1ccc(F)cc1 [DNDI0003369119] | > 64 | 1530 | 3.2 | 33.1 | 33.3 | 23.8 | > 64 | 2210 | > 64 | – | – | – | – | – | – | –
COc1ccc(S(=O)(=O)N(C)C)cc1NC(=O)C1CCCc2ccccc21 (stereo not shown) [Compound Z300980532] | – | – | – | – | – | – | – | – | – | > 32 | > 32 | > 32 | > 32 | – | – | –
CC1CCc2ccccc2N1CC(=O)Nc1ccc(Cl)c(S(=O)(=O)N(C)C)c1 (stereo not shown) [Compound Z46500410] | – | – | – | – | – | – | – | – | – | > 32 | > 32 | > 32 | > 32 | – | – | –
COc1ccc(S(=O)(=O)N(C)C)cc1NC(=O)Cn1c(=O)cnc2ccccc21 [Compound Z19025005] | – | – | – | – | – | – | – | – | – | > 32 | > 32 | > 32 | > 32 | – | – | –
CCCCNS(=O)(=O)c1cccc(NC(=O)c2cc3ccccc3[nH]2)c1 [Compound Z88584859] | – | – | – | – | – | – | – | – | – | 16.2 | > 32 | 25.4 | > 32 | 4.79 | – | –
O=S(=O)(c1ccccc1Br)N(Cc1ccccc1)C(CO)Cc1ccccc1 (stereo not shown) [DNDI0003369450] | 21.3 | 2180 | 4.6 | > 64 | > 64 | 2.82 | > 64 | 1560 | 5.54 | – | – | – | – | – | – | –
Fc1cccc(Cl)c1CNc1ccccc1-n1cccn1 [Compound Z739504072] | – | – | – | – | – | – | – | – | – | > 32 | > 32 | > 32 | > 32 | – | – | –
CC1Cc2ccccc2N1CC(=O)Nc1ccc(Cl)c(S(=O)(=O)N(C)C)c1 (stereo not shown) [Compound Z30956600] | – | – | – | – | – | – | – | – | – | > 32 | > 32 | > 32 | > 32 | – | – | –
COc1ccc(Cl)cc1S(=O)(=O)N(CC(=O)c1ccc(F)cc1)Cc1ccccc1 [DNDI0003371155] | > 64 | 1900 | 4.8 | 41.7 | 41.8 | 0.24 | 45.2 | – | > 64 | – | – | – | – | – | – | –
COc1ccc(S(=O)(=O)N(Cc2ccccc2C#N)Cc2ccccc2C#N)cc1OC [Compound Z220633250] | – | – | – | – | – | – | – | – | – | 4.76 | > 32 | > 32 | > 32 | 5.32 | – | –
COc1ccc(OC)c(S(=O)(=O)N(Cc2ccc(F)cc2)Cc2ccccn2)c1 [DNDI0003368394] | > 64 | 344 | 2.7 | 0.977 | 0.97 | 60.1 | > 64 | 151 | 20.9 | – | – | – | – | – | – | –
CCCCNS(=O)(=O)c1cccc(NC(=O)c2ccc(C)c(OC)c2)c1 [Compound Z109591588] | – | – | – | – | – | – | – | – | – | > 32 | > 32 | > 32 | > 32 | – | – | –
COc1ccccc1S(=O)(=O)N(Cc1ccccc1)Cc1ccccc1 [Compound Z45508946] | – | – | – | – | – | – | – | – | – | 0.34 | > 32 | 1.59 | > 32 | 6.47 | – | –
COC(=O)c1c(C)[nH]c(C(=O)Nc2cccc(S(C)(=O)=O)c2)c1C [Compound Z109929482] | – | – | – | – | – | – | – | – | – | > 32 | > 32 | > 32 | > 32 | – | – | –
O=S(=O)(NCc1cccs1)c1ccc2c(c1)CCCC2 [Compound Z45423905] | – | – | – | – | – | – | – | – | – | > 32 | 27.1 | > 32 | > 32 | – | – | –
CN(C)S(=O)(=O)c1cccc(NC(=O)CN2CCCc3cc(F)cc(F)c32)c1 [Compound Z369155588] | – | – | – | – | – | – | – | – | – | > 32 | > 32 | > 32 | > 32 | – | – | –
COc1ccc(C#N)cc1S(=O)(=O)N(Cc1ccc(F)cc1)Cc1ccccn1 [DNDI0003370083] | > 64 | 1840 | 3.6 | 3.16 | 3.19 | 11.9 | > 64 | 694 | 28.9 | – | – | – | – | – | – | –

SMILES | CC50 at 3 days (in vitro [1]) [µM] | microsomal CLint at 0.5 μM (in vitro [2]) [µL/min/mg] | chromatographic logD (physchem) | IC50 [3, 11] [µM] | IC50 [3, 12] [µM] | Papp (in vitro [4]) [×10⁻⁶ cm/s] | IC50 [5] [µM] | microsomal CLint at 0.5 μM (in vitro [6]) [µL/min/mg] | IC50 [7] [µM] | IC50 [8] [µM] | CC50 (MRC-5SV2 cells) [µM] | IC50 [9] [µM] | IC50 [10] [µM] | L. Inf. pIC50 [8] | L. Inf. pIC50 [8, 13] | SI (vs PMM) [10]
CCCCOc1cc(C)c(Cl)cc1S(=O)(=O)NCc1cccs1 [Compound Z1198037505] | – | – | – | – | – | – | – | – | – | – | – | 5.38 | – | – | 6.1 | 41
CN(C)CCOc1ccc(F)cc1S(=O)(=O)N(Cc1ccc(F)cc1)Cc1ccc(F)cc1 [DNDI0003371161] | 7.62 | 845 | 4.9 | 2.19 | 2.19 | 0.06 | 8 | 214 | 2.17 | – | – | – | – | – | – | –
CCOC(=O)c1c(C)[nH]c(C(=O)NNC(=O)c2cccc(S(=O)(=O)N(CC)CC)c2)c1C [Compound Z30581529] | – | – | – | – | – | – | – | – | – | > 32 | > 32 | > 32 | > 32 | – | – | –
O=S(=O)(NC(CO)Cc1ccccc1)c1cc(F)ccc1F (stereo not shown) [DNDI0003368459] | > 64 | 274 | 2.8 | > 64 | > 64 | 10.6 | > 64 | 42 | > 64 | – | – | – | – | – | – | –
O=S(=O)(NCc1ccc(F)cc1)c1cccnc1NCCN1CCOCC1 [DNDI0003369121] | > 64 | 1950 | 3.1 | > 64 | > 64 | 1.85 | > 64 | 1850 | > 64 | – | – | – | – | – | – | –
CCCCOc1cc(C)c(Cl)cc1S(=O)(=O)NCc1cccnc1 [Compound Z969575790] | – | – | – | – | – | – | – | – | – | – | – | 25.4 | – | – | 4.78 | 2
COc1ccc(OC)c(S(=O)(=O)N(CCn2nc(C)cc2C)Cc2ccccc2)c1 [DNDI0003367308] | 51 | 3100 | 4.1 | 6.17 | 6.23 | 10.9 | > 64 | 2270 | 8.09 | – | – | – | – | – | – | –
O=S(=O)(NCc1ccc(F)cc1)c1cccnc1OCc1ccccc1 [DNDI0003369120] | 20.2 | 2750 | 4 | 8.51 | 8.42 | 12.8 | 32 | 2740 | 12.7 | – | – | – | – | – | – | –
O=S(=O)(c1cc(F)ccc1F)N(Cc1ccccc1)C(CO)CO [DNDI0003369448] | > 64 | 97 | 2.9 | 57.5 | 57 | 11.2 | > 64 | < 23 | 31.6 | – | – | – | – | – | – | –
CCCOc1cc(C)c(C)cc1S(=O)(=O)NC1CCCC1 [Compound Z1197866122] | – | – | – | – | – | – | – | – | – | – | – | > 32 | – | – | – | 1
CCCCCOc1cc(C)c(Cl)cc1S(=O)(=O)NCc1ccco1 [Compound Z1172171148] | – | – | – | – | – | – | – | – | – | – | – | 4.76 | – | – | 5.97 | 30
O=S(=O)(NC(CO)Cc1ccccc1)c1ccccc1Br (stereo not shown) [DNDI0003369449] | > 64 | 1370 | 3 | > 64 | > 64 | 17.4 | > 64 | 244 | 33.4 | – | – | – | – | – | – | –
COC(=O)[C@H](CO)NS(=O)(=O)c1cc(Cl)ccc1OC [DNDI0003369004] | > 64 | 230 | 1.8 | > 64 | > 64 | 9.07 | > 64 | 112 | > 64 | – | – | – | – | – | – | –
COc1ccc(S(=O)(=O)N(Cc2ccccc2)Cc2ccccc2)cc1 [DNDI0003367309] | > 64 | 2410 | – | 45.7 | 45.4 | 1 | > 64 | 184 | > 64 | – | – | – | – | – | – | –
COc1ncccc1S(=O)(=O)N(Cc1ccc(F)cc1)Cc1ccccn1 [DNDI0003370084] | > 64 | 4620 | 3.5 | 7.41 | 7.39 | 27.4 | > 64 | 696 | 33.6 | – | – | – | – | – | – | –
O=C(CN(Cc1ccccc1)S(=O)(=O)c1cc(F)ccc1F)c1ccc(F)cc1 [DNDI0003371157] | > 64 | 1380 | 4.6 | > 64 | > 64 | 0.83 | > 64 | 756 | > 64 | – | – | – | – | – | – | –
